US11008290B2, “Halogenated quinoline derivatives as antimicrobial agents” (University of Florida Research Foundation, Incorporated, priority 2015, dated 2021)
In brackets after ≈: the same amount, converted by molar mass. Where two headings read alike, the source gives them in different places. Values belong to the compound of their own block, whether it stands above or below them.

Key:
[1] = test system: MRSA BAA-1707; experiment: Calgary Biofilm Device (CBD) MBC/MBEC determination; assay type: cell-based, Staphylococcus aureus; settings: for MBC: Staphylococcus aureus, read-out: MRSA BAA-1707 MBC; for MRSA BAA-1707 MBEC: biofilm eradication, second value of cell
Procedure: (§1) Biofilm eradication experiments were performed using the Calgary Biofilm Device to determine MBC/MBEC values for various compounds of interest (Innovotech, product code: 19111). The Calgary device (96-well plate with lid containing 96 total pegs to establish biofilms; 1 peg/well) was inoculated with 125 μL of a mid-log phase culture diluted 1,000-fold in tryptic soy broth with 0.5% glucose (TSBG) to establish bacterial biofilms after incubation at 37° C. for 24 hours. The lid of the Calgary device was then removed, washed and transferred to another 96-well plate containing 2-fold serial dilutions of the test compounds (the “challenge plate”). The total volume of media with compound in each well in the challenge plate was 150 μL. The Calgary device was then incubated at 37° C. for 24 hours. The lid was then removed from the challenge plate and MBC/MBEC values were determined using different final assays. […] The MBC values were determined as the concentration giving a lack of visible bacterial growth (e.g., turbidity). For determination of MBEC values, the Calgary device lid (with attached pegs/treated biofilms) was transferred to a new 96-well plate containing 150 μL of fresh TSBG media in each well and incubated for 24 hours at 37° C. to allow viable biofilms to grow and disperse resulting in turbidity after the incubation period. […] In select experiments, treated pegs from the Calgary device were removed from lead biofilm eradicators after final incubation, sonicated for 30 minutes in PBS and plated out to determine biofilm cell killing (e.g., colony forming unit per milliliter, CFU/mL).

[2] = test system: MRSA-2 planktonic cells and biofilms; experiment: as above; assay type: cell-based, Staphylococcus aureus; settings: CBD; for MBC: planktonic killing, first value of MBC/MBEC cell
Procedure: as §1

[3] = test system: VRE (ATCC 700221) planktonic cells and biofilms; experiment: as above; assay type: cell-based, Enterococcus faecium; settings: Enterococcus
Procedure: as §1

[4] = test system: MRSE (ATCC 35984) planktonic cells and biofilms; experiment: as above; assay type: cell-based, Staphylococcus epidermidis; settings: for MBC: Staphylococcus epidermidis
Procedure: as §1

[5] = test system: human red blood cells; experiment: Hemolysis assay; assay type: cell-based
Procedure: Freshly drawn human red blood cells (hRBC with ethylenediaminetetraacetic acid (EDTA) as an anticoagulant) were washed with Tris-buffered saline (0.01M Tris-base, 0.155M sodium chloride (NaCl), pH 7.2) and centrifuged for 5 minutes at 3500 rpm. The washing was repeated three times with the buffer. In 96-well plate, the test compounds were added to the buffer. […] The plate was then incubated for 1 hour at 37° C. After incubation, the plate is centrifuged for 5 minutes at 3500 rpm. Then 80 μL of the supernatant were transferred to another 96-well plate and the Optical Density (OD) was read at 405 nm. […] The percent of hemolysis was calculated as (OD405 of the compound-OD405 DMSO)/(OD405 Triton X-OD405 buffer).

[6] = test system: methicillin-resistant Staphylococcus aureus-2 (MRSA-2; clinical isolate); experiment: Minimum inhibitory concentration (MIC) susceptibility assay, broth microdilution; assay type: cell-based
Procedure: (§2) The minimum inhibitory concentration (MIC) for each compound was determined by the broth microdilution method as recommended by the Clinical and Laboratory Standards Institute (CLSI). In a 96-well plate, eleven two-fold serial dilutions of each compound were made in a final volume of 100 μL Luria Broth. Each well was inoculated with ˜10^5 bacterial cells at the initial time of incubation, prepared from a fresh log phase culture (OD600 of 0.5 to 1.0 depending on bacterial strain). […] The concentration range tested for each compound during this study was 0.10 to 100 μM. DMSO served as the vehicle and negative control in each microdilution MIC assay. DMSO was serially diluted with a top concentration of 1% v/v. Bacterial strains used: methicillin-resistant Staphylococcus aureus-2 (MRSA-2; clinical isolate from Shands Hospital in Gainesville, Fla.), methicillin-resistant Staphylococcus epidermidis (MRSE; ATCC 35984), vancomycin-resistant Enterococcus faecium (VRE, ATCC 700221).

[7] = test system: vancomycin-resistant Enterococcus faecium (VRE, ATCC 700221); experiment: as above; assay type: cell-based; settings: read-out: VRE MIC
Procedure: as §2

[8] = test system: methicillin-resistant Staphylococcus epidermidis (MRSE; ATCC 35984); experiment: Minimum inhibitory concentration (MIC) susceptibility assay, broth microdilution; assay type: cell-based; settings: read-out: MRSE MIC
Procedure: as §2

[9] = Table 4, planktonic killing, CBD, first value of cell
[10] = Staphylococcus aureus, MRSA, Table 3, read-out: MRSA-2 MBC
[11] = Table 3, planktonic killing, CBD, first value of cell, footnote c = lowest concentration tested, read-out: VRE MBC
[12] = Table 3, planktonic killing, CBD, first value of cell, read-out: MRSE MBC
[13] = Staphylococcus, MRSA, Table 3, at least three independent experiments, read-out: MRSA-2 MIC
[14] = Table 2, read-out: MRSA-2 Clinical Isolate MBC
[15] = Staphylococcus epidermidis, Table 2, ATCC 35984
[16] = Staphylococcus, MRSA, Table 2, 2 to 6 independent experiments, read-out: MRSA-2 MIC
[17] = Table 2, human red blood cells, 1 hour at 37° C.
[18] = Staphylococcus epidermidis, Table 3

MIC [6, 13]: 0.78 µM (≈ 0.269 µg/mL)
MIC ([7]; Table 3): 0.78 µM (≈ 0.269 µg/mL)
SMILES: CCCc1ccc2c(Br)cc(Br)c(O)c2n1 [A-HQ-3]
MBC [1, 9]: 31.3 µM (≈ 10.8 µg/mL)
MBC [2, 10]: 125 µM (≈ 43.1 µg/mL)
MBC [3, 11]: 2 µM (≈ 0.69 µg/mL)
MBC [4, 12]: 9.38 µM (≈ 3.24 µg/mL)
% Haemolysis at 200 μM ([5]; human, 1 h, pH 7.2): ≤1%

MIC [6, 13]: 0.78 µM (≈ 0.28 µg/mL)
MIC ([7]; Table 3): 100 µM (≈ 35.9 µg/mL)
SMILES: CC(C)Cc1ccc2c(Br)cc(Br)c(O)c2n1 [A-HQ-5]
MBC [1, 9]: 31.3 µM (≈ 11.2 µg/mL)
% Haemolysis at 200 μM ([5]; human, 1 h, pH 7.2): 12.3%

melting point: 154 to 156 °C
SMILES: O=Cc1ccc2c(Br)cc(Br)c(O)c2n1 [Compound 2, 5,7-dibromo-8-hydroxyquinoline-2-carbaldehyde]

MIC [8, 15]: 12.5 µM (≈ 20.3 µg/mL)
MIC ([8]; Table 3): 12.5 µM (≈ 20.3 µg/mL)
SMILES: CCCCCCCCCC(=O)N[C@@H](Cc1c[nH]c2ccccc12)C(=O)N[C@H](CC(N)=O)C(=O)N[C@@H](CC(=O)O)C(=O)N[C@@H]1C(=O)NCC(=O)N[C@@H](CCCN)C(=O)N[C@@H](CC(=O)O)C(=O)N[C@H](C)C(=O)N[C@@H](CC(=O)O)C(=O)NCC(=O)N[C@H](CO)C(=O)N[C@@H]([C@H](C)CC(=O)O)C(=O)N[C@@H](CC(=O)c2ccccc2N)C(=O)O[C@@H]1C [Daptomycin, reference compound]
MBC [1, 9]: 125 µM (≈ 203 µg/mL)
MRSA BAA-1707 MBEC ([1]; Table 4, CBD): unable to eradicate
MBC [2, 10]: 62.5 µM (≈ 101 µg/mL)
MBC [2, 14]: 62.5 µM (≈ 101 µg/mL)
% Haemolysis at 200 μM ([5]; human, 1 h, pH 7.2): 1.7%

MIC ([8]; Staphylococcus epidermidis, 18 h, Table 2, ATCC 35984): 0.15 to 0.3 µM (≈ 0.0612 to 0.122 µg/mL)
MIC [8, 15]: 0.15 µM (≈ 0.0612 µg/mL)
MIC [6, 16]: 0.78 µM (≈ 0.318 µg/mL)
MIC ([6]; Staphylococcus, MRSA, read-out: MIC): 1.13 µM (≈ 0.461 µg/mL)
MIC ([7]; 18 h, Table 2, ATCC 700221): 0.39 to 0.78 µM (≈ 0.159 to 0.318 µg/mL)
MIC ([7]; Table 2, ATCC 700221): 0.78 µM (≈ 0.318 µg/mL)
SMILES: Oc1c(Br)cc(Br)c2ccc(CNc3ccccc3)nc12 [HQ-3]
MBC [1, 9]: 62.5 µM (≈ 25.5 µg/mL)
MBC ([2]; Staphylococcus aureus, MRSA, Table 2, read-out: MRSA-2 Clinical Isolate MBC): 125 µM (≈ 51 µg/mL)
MRSA-2 MBEC ([2]; Table 3, biofilm eradication, second value of MBC/MBEC cell): equipotent biofilm eradication activities
MBC ([3]; Table 2, planktonic killing, CBD, first value of cell, read-out: VRE ATCC 700221 MBC): 7.8 µM (≈ 3.18 µg/mL)
MBC ([4]; Table 2, planktonic killing, CBD, first value of cell, read-out: MRSE ATCC 35984 MBC): 7.8 µM (≈ 3.18 µg/mL)

melting point: 172 to 174 °C
SMILES: N#Cc1ccc2c(Br)cc(Br)c(O)c2n1 [HQ-8, 5,7-dibromo-8-hydroxyquinoline-2-carbonitrile]

melting point: 131 to 133 °C
SMILES: OCc1ccc2c(Br)cc(Br)c(O)c2n1 [HQ-11, 5,7-dibromo-2-(hydroxymethyl)quinolin-8-ol]

melting point: 114 to 116 °C
SMILES: CC(O)c1ccc2c(Br)cc(Br)c(O)c2n1 (stereo not drawn) [HQ-13, 5,7-dibromo-2-(1-hydroxyethyl)-8-hydroxyquinoline]

melting point: 172 to 174 °C
SMILES: N=C(N)c1ccc2c(Br)cc(Br)c(O)c2n1 [HQ-14, 5,7-dibromo-8-hydroxyquinoline-2-carboximidamide]

MIC [8, 15]: 3.13 µM (≈ 1.06 µg/mL)
MIC ([8]; Table 3): 3.13 µM (≈ 1.06 µg/mL)
MIC [6, 16]: 3.13 µM (≈ 1.06 µg/mL)
MIC ([6]; Table 3, at least three independent experiments, read-out: MRSA-2 MIC): 3.13 µM (≈ 1.06 µg/mL)
MIC ([7]; Table 2, ATCC 700221): 3.13 µM (≈ 1.06 µg/mL)
MIC ([7]; Table 3): 3.13 µM (≈ 1.06 µg/mL)
SMILES: CC(=O)NC[C@H]1CN(c2ccc(N3CCOCC3)c(F)c2)C(=O)O1 [Linezolid, reference compound]
MBC [1, 9]: 31.3 µM (≈ 10.6 µg/mL)
MRSA BAA-1707 MBEC ([1]; Table 4, CBD): unable to eradicate
% Haemolysis at 200 μM [5, 17]: ≤1%
% Haemolysis at 200 μM ([5]; Table 3, human red blood cells): ≤1%

MIC [8, 18]: 0.39 µM (≈ 0.166 µg/mL)
MIC [6, 13]: 0.39 µM (≈ 0.166 µg/mL)
MIC ([7]; Table 3): 0.78 µM (≈ 0.332 µg/mL)
SMILES: Oc1c(Br)cc(Br)c2ccc(CNc3ccc(F)cc3)nc12 [RA-HQ-12]
fold more potent than HQ-1 (MBEC) ([1]; MRSA BAA-1707): 6 fold
MBC [1, 9]: 15.6 µM (≈ 6.65 µg/mL)
MBC [2, 10]: 31.3 µM (≈ 13.3 µg/mL)
MBC [3, 11]: 1 µM (≈ 0.426 µg/mL)
MBEC:MBC ratio ([4]; MRSE 35984, CBD): ~1
MBC [4, 12]: 3.9 µM (≈ 1.66 µg/mL)
% Haemolysis at 200 μM ([5]; human, 1 h, pH 7.2): ≤1%

MIC [8, 18]: 0.2 µM (≈ 0.0974 µg/mL)
MIC [6, 13]: 1.56 µM (≈ 0.76 µg/mL)
MIC ([7]; Table 3): 0.78 µM (≈ 0.38 µg/mL)
SMILES: Oc1c(Br)cc(Br)c2ccc(CNc3ccccc3Br)nc12 [RA-HQ-16]
MBC [1, 9]: 93.8 µM (≈ 45.7 µg/mL)
MBC [2, 10]: 188 µM (≈ 91.6 µg/mL)
MBC [3, 11]: 7.8 µM (≈ 3.8 µg/mL)
MBC [4, 12]: 46.9 µM (≈ 22.8 µg/mL)
% Haemolysis at 200 μM ([5]; human, 1 h, pH 7.2): ≤1%

SMILES: CN[C@H](CC(C)C)C(=O)N[C@H]1C(=O)N[C@@H](CC(N)=O)C(=O)N[C@H]2C(=O)N[C@H]3C(=O)N[C@H](C(=O)N[C@H](C(=O)O)c4cc(O)cc(O)c4-c4cc3ccc4O)[C@H](O)c3ccc(c(Cl)c3)Oc3cc2cc(c3O[C@@H]2O[C@H](CO)[C@@H](O)[C@H](O)[C@H]2O[C@H]2C[C@](C)(N)[C@H](O)[C@H](C)O2)Oc2ccc(cc2Cl)[C@H]1O [Vancomycin, reference compound]
MBC [1]: 5.9 µM (≈ 8.55 µg/mL)
MRSA BAA-1707 MBEC ([1]; Table 4, CBD): unable to eradicate
MBC ([2]; Staphylococcus aureus, MRSA, read-out: MRSA-2 Clinical Isolate MBC, Table 2): 3 to 62.5 µM (≈ 4.35 to 90.6 µg/mL)
MBC ([2]; Staphylococcus aureus, MRSA, read-out: MRSA-2 MBC, Table 3): 3 µM (≈ 4.35 µg/mL)
MBC [2, 14]: 3.0 µM (≈ 4.35 µg/mL)
MBC ([3]; read-out: VRE ATCC 700221 MBC): > 200 µM
MBC ([3]; read-out: VRE MBC): > 200 µM
MBC ([4]; read-out: MRSE ATCC 35984 MBC): 3 µM (≈ 4.35 µg/mL)
MBC ([4]; read-out: MRSE MBC): 3 µM (≈ 4.35 µg/mL)
% Haemolysis at 200 μM [5, 17]: ≤1%
% Haemolysis at 200 μM ([5]; Table 3, human red blood cells): ≤1%
MIC ([7]; Table 3): >100 µM
MIC [7]: > 100 µM
